Measured values as given in patent publication US20210106703A1, “RADIOIMMUNOCONJUGATES IN COMBINATION WITH OTHER DRUGS AS TREATMENT AGAINST NHL” (Nordic Nanovector ASA, priority 2017, published 2021).
Like-named read-outs stand apart in the source and are kept apart here.

What was measured:
[1] = system: OCI-Ly8 cells; assay: Cell cycle analysis (PI, Muse flow cytometer); assay type: cell-based, human; details: OCI-Ly8, 1 μM inhibitor + ^177Lu-lilotomab, versus ^177Lu-lilotomab alone
Description: Cells were harvested at 0 […], and fixed in 70% ethanol at -20° C. for at least 3 h. After staining with the Muse® Cell Cycle Assay Kit (Merck Millipore, Molsheim, France) using propidium iodide in the dark at room temperature for 30 min, cell cycle distribution was analyzed using a Muse® flow cytometer. The percentage of cells in the G0/G1, S and G2/M was calculated (mean of three experiments in triplicate) and the effect of WEE-1 and MYT-1 kinase inhibitors on the cell cycle was assessed.

[2] = system: SUDHL4 cells; assay: Alamar Blue cytotoxicity study; assay type: cell-based, human; details: for IC50: Homo sapiens; for Combination Index (Chou-Talalay): 120 h
Description: Cells were incubated with 0.25, 0.5, 1, 2.5 or 5 μg/ml of Humalutin in cell culture flasks and incubated at 37° C./5% CO2. After 18-20 hours cells were washed and resuspended in fresh medium. Cell bound activity after washing was measured using a calibrated gamma detector (Cobra II auto-gamma detector, Packard Instrument Company, Meriden, Conn., USA). Cell concentration and viability was also measured after washing using Guava ViaCount Cell Dispersal Reagent for Flow Cytometry (Merck GaA, Darmstadt, Germany) and measured in a Guava EasyCyte 12HT (Merck KGaA, Darmstadt, Germany) to determine how well the cells survived the incubation. Cells were seeded in 96 well plates. […]
Cells were treated with either Humalutin, venetoclax or a combination of both and seeded into 96 well-plates. At each time point after treatment, cells were incubated with Alamar Blue (Thermo Fisher, DALL1100) for 4 hours and fluorescence measurements were performed using a multiplate reader Fluoroskan ascent FL to assess cell proliferation and viability. All experiments were done in duplicates using 2 samples in each experiment. Data were normalized to the untreated controls.
Cells were incubated with either 0, 0.5 μg/ml or 1 μg/ml Humalutin and the same procedure as described before for treatment with Humalutin alone and venetoclax alone was followed.
The Chou-Talalay model was used for synergy calculations using the Compusyn software. R (goodness of fit) was calculated for the individual treatments and should be over 0.90 in in vitro culture experiments in order to use with confidence the calculated combination index (CI). The CI is an indication of synergy: 0-0.9 is considered synergy. Synergysm grading was used as described in WO2006004917A2.
Cells were incubated with 0.25, 0.5, 1, 2.5 or 5 μg/ml of Humalutin in cell culture flasks and incubated at 37° C./5% CO2. After 18-20 hours cells were washed and resuspended in fresh medium. Cell bound activity after washing was measured using a calibrated gamma detector (Cobra II auto-gamma detector, Packard Instrument Company, Meriden, Conn., USA). Cell concentration and viability were also measured after washing using Guava ViaCount Cell Dispersal Reagent for Flow Cytometry (Merck GaA, Darmstadt, Germany) and measured in a Guava EasyCyte 12HT (Merck KGaA, Darmstadt, Germany) to determine how well the cells survived the incubation. Cells were seeded in 96 well plates. Alamar blue viability measurements were performed 120 h after seeding.
Cells were incubated with either 0 (control), 0.5 μg/ml or 1 μg/ml Humalutin for 18 to 20 hours. Cells were then washed and resuspended in fresh medium.

[3] = system: Ramos cells; assay: Immunoreactive fraction, one point modified Lindmo method; assay type: binding, human; details: 75 million Ramos cells/ml
Description: The immunoreactivity of the radioimmunoconjugates was measured using Ramos cells and a one point modified Lindmo method. The cell concentration used was 75 million cells/ml. The immunoreactivity of the conjugates was higher than 70%.
The immunoreactivity of the radioimmunoconjugates was measured using Ramos cells and a one point modified Lindmo method (1, 2). The cell concentration used was 75 million cells/ml. The immunoreactivity of the conjugates was higher than 70%.
The immunoreactivity of the radioimmunoconjugates was measured using Ramos cells and a one point modified Lindmo method. The cell concentration used was 75 million cells/ml. The immunoreactivity of the conjugates was higher than 70%).

With `C=CCn1c(=O)c2cnc(Nc3ccc(N4CCN(C)CC4)cc3)nc2n1-c1cccc(C(C)(C)O)n1` [MK-1775] the “Proportion of cells in G2/M, inhibitor combined with ^177Lu-lilotomab” value [1] was “reduction of the fraction of G2/M cells”.

In the case of `CC1(C)CCC(CN2CCN(c3ccc(C(=O)NS(=O)(=O)c4ccc(NCC5CCOCC5)c([N+](=O)[O-])c4)c(Oc4cnc5[nH]ccc5c4)c3)CC2)=C(c2ccc(Cl)cc2)C1` [venetoclax], the IC50 ([2]; SU-DHL-4, read-out: IC50 at 120 h, SUDHL-4, 120 h incubation after seeding) is reported as 2.42 µM, the IC50 ([2]; SU-DHL-4, SUDHL4, 72 h incubation after seeding, read-out: IC50) is reported as 3.66 µM and the “Combination Index (Chou-Talalay)” value ([2]; SUDHL-4, drug 10 μM + Humalutin 0.5 μg/ml) is reported as 2.43. For the same molecule, the “Combination Index (Chou-Talalay)” value ([2]; SUDHL-4, drug 10 μM + Humalutin 1 μg/ml) was 0.09, the “Combination Index (Chou-Talalay)” value ([2]; SUDHL-4, drug 40 μM + Humalutin 0.5 μg/ml) was 3.77 and the “Combination Index (Chou-Talalay)” value ([2]; SUDHL-4, drug 40 μM + Humalutin 1 μg/ml) was 0.11. For the same molecule, the “Combination Index (Chou-Talalay)” value ([2]; SUDHL-4, drug 80 μM + Humalutin 0.5 μg/ml) was 0.50, the “Combination Index (Chou-Talalay)” value ([2]; SUDHL-4, drug 80 μM + Humalutin 1 μg/ml) was 0.06 and the “Combination Index (Chou-Talalay)” value ([2]; SUDHL-4, drug 100 μM + Humalutin 0.5 μg/ml) was 0.83. For the same molecule, the “Combination Index (Chou-Talalay)” value ([2]; SUDHL-4, drug 100 μM + Humalutin 1 μg/ml) was 0.02, the “Combination Index (Chou-Talalay)” value ([2]; SUDHL-4, venetoclax 0.25 + Humalutin 0.5 μg/ml) was 0.01 and the “Combination Index (Chou-Talalay)” value ([2]; SUDHL-4, venetoclax 0.25 + Humalutin 1 μg/ml) was 0.06. For the same molecule, the “Combination Index (Chou-Talalay)” value ([2]; SUDHL-4, venetoclax 0.5 + Humalutin 0.5 μg/ml) was 0.003, the “Combination Index (Chou-Talalay)” value ([2]; SUDHL-4, venetoclax 0.5 + Humalutin 1 μg/ml) was 0.01 and the “Combination Index (Chou-Talalay)” value ([2]; SUDHL-4, venetoclax 1 + Humalutin 0.5 μg/ml) was 0.01. For the same molecule, the “Combination Index (Chou-Talalay)” value ([2]; SUDHL-4, venetoclax 1 + Humalutin 1 μg/ml) was 0.09, the “Combination Index (Chou-Talalay)” value ([2]; SUDHL-4, venetoclax 2.5 + Humalutin 0.5 μg/ml) was 0.02 and the “Combination Index (Chou-Talalay)” value ([2]; SUDHL-4, venetoclax 2.5 + Humalutin 1 μg/ml) was 0.12.

B1: Lutetium-177 [^177Lu]-lilotomab satetraxetan (conjugate, chains of the INN, looked up)
VH: EIQLQQSGPELVKPGASVKVSCKASGYSFTDYNMYWVKQSHGKSLEWIGYIDPYNGDTTYNQKFKGKATLTVDKSSSTAFIHLNSLTSEDSAVYYCARSPYGHYAMDYWGQGTSVTVSS
VL: DIVMTQSHKLLSTSVGDRVSITCKASQDVSTAVDWYQQKPGQSPKLLINWASTRHTGVPDRFTGSGSGTDYTLTISSMQAEDLALYYCRQHYSTPFTFGSGTKLEIK
modifications: 177Lu satetraxetan chelator conjugate
With B1 the Immunoreactivity [3] was “higher than 70%”.
